In patent US20250115569A1, “SULFONAMIDE COMPOUNDS FOR THE TREATMENT OF NEUROLOGICAL CONDITIONS” (LARIO THERAPEUTICS LIMITED, priority 2021, published 2025):

What was measured:
Cav2.3 = Cav2.3 (Homo sapiens, UniProt Q15878); assay: Human Cav2.3 channel calcium-influx assay; type: cell-based; conditions: Fluo8 fluorescence, HEK-293 T-Rex/Kir2.1/Cav2.3e cells, without pluronic acid, read-out: Cav2.3 (pIC50) (converted)
Method in brief: (§1)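 HEK-293 T-Rex/Kir2.1 cells with doxycycline (0.2 μg/mL)-inducible Cav2.3e plus Cavβ4-α2δ1, loaded with Fluo8 NW in 0 mM K+ Tyrode's. Compounds (8 points, top 30 μM, half-log, 0.3% final DMSO, n=4) preincubated 3 min at RT, then depolarized with 20 mM KCl/2 mM CaCl2 (final); fluorescence read 130 s.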

Human Cav2.3 channel = Human Cav2.3 channel calcium-influx assay; type: cell-based; conditions: Fluo8 fluorescence, HEK-293 T-Rex/Kir2.1/Cav2.3e cells, without pluronic acid
Method in brief: as §1

Cav2.3, sequence (Q15878 whole entry, looked up): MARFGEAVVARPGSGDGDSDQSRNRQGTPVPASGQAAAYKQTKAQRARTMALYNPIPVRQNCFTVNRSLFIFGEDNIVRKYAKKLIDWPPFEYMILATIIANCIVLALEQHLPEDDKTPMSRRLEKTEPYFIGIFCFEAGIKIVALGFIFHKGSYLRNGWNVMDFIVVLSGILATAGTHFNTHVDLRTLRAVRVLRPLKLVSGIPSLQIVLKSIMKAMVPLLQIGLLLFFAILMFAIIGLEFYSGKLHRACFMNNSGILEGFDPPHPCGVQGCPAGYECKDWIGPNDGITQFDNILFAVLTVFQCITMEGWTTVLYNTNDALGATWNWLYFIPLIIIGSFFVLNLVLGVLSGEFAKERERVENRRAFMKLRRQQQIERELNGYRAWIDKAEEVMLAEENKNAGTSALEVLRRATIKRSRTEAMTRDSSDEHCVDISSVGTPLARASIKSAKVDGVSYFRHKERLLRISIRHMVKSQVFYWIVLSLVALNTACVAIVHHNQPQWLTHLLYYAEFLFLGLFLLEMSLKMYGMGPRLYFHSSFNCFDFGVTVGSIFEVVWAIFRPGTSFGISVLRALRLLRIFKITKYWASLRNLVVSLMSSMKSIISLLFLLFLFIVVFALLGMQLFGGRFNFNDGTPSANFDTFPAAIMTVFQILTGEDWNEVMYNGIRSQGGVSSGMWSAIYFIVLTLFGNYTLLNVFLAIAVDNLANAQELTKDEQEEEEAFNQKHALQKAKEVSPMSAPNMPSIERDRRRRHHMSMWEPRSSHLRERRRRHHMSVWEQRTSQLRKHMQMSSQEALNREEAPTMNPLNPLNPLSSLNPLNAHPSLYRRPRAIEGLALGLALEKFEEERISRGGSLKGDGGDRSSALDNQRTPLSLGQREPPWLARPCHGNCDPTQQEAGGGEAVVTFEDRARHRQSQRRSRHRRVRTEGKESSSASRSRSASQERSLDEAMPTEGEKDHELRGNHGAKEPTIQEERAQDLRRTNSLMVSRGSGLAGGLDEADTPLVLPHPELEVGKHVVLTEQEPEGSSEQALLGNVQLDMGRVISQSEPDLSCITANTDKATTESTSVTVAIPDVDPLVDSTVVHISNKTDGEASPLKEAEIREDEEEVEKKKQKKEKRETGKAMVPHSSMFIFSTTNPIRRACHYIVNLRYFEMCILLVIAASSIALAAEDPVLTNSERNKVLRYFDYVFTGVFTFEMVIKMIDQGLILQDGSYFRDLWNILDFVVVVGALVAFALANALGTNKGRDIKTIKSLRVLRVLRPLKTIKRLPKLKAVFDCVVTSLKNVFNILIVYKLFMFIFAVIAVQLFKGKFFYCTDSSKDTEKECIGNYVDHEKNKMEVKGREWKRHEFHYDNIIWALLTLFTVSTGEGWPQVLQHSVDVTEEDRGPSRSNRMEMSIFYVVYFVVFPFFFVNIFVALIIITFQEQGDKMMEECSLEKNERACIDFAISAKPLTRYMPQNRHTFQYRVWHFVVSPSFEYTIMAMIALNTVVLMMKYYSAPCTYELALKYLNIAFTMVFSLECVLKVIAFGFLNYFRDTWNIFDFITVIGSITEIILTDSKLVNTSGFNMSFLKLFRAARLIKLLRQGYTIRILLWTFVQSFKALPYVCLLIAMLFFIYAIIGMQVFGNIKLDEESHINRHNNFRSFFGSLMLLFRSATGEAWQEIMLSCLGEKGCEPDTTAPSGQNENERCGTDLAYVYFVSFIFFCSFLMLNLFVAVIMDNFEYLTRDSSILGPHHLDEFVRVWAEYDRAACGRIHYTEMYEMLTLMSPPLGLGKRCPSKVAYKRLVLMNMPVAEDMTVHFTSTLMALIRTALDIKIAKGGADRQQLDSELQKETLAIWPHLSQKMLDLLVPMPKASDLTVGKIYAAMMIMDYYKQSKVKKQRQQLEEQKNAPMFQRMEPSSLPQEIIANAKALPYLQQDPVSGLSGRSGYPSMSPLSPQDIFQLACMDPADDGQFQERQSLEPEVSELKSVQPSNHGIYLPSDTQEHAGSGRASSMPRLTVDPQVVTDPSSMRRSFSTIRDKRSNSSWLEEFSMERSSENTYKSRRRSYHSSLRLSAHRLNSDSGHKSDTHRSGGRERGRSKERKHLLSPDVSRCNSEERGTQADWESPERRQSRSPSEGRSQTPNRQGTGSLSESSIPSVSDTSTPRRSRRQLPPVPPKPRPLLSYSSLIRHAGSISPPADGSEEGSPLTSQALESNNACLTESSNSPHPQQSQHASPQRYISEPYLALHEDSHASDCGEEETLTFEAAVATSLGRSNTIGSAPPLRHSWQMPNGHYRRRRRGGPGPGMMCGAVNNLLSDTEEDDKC

Structure (SMILES) | IC50 (Cav2.3) [nM] | Cav2.3 (pIC50) (Human Cav2.3 channel)
CN(C(c1ccc(F)cc1)C(F)(F)F)S(=O)(=O)c1cncc(C#N)c1 (racemic) [Example 272, 5-Cyano-N-methyl-N-(2,2,2-trifluoro-1-(4-fluorophenyl)ethyl)pyridine-3-sulfonamide] | 155 | 
CN([C@@H](c1ccc(F)cc1)C(F)(F)F)S(=O)(=O)c1ccc(F)s1 (stereo in doubt) [Example 18, 5-fluoro-N-methyl-N-(2,2,2-trifluoro-1-(4-fluorophenyl)ethyl)thiophene-2-sulfonamide] | 11700 | 
CN([C@H](c1ccc(F)cc1)C(F)(F)F)S(=O)(=O)c1ccc(F)s1 (stereo in doubt) [Example 19, 5-fluoro-N-methyl-N-(2,2,2-trifluoro-1-(4-fluorophenyl)ethyl)thiophene-2-sulfonamide] | 2400 | 
CCN(C(c1ccc(F)cc1)C(F)(F)F)S(=O)(=O)c1cncc(C(N)=O)c1 (stereo in doubt) [Example 52, (S)-5-(N-ethyl-N-(2,2,2-trifluoro-1-(4-fluorophenyl)ethyl)sulfamoyl)nicotinamide] | 95.5 | 
CCN(C(c1ccc(F)cc1)C(F)(F)F)S(=O)(=O)c1cncc(C(N)=O)c1 (stereo in doubt) [Example 53, (R)-5-(N-ethyl-N-(2,2,2-trifluoro-1-(4-fluorophenyl)ethyl)sulfamoyl)nicotinamide] | 1780 | 
CN(C(c1ccc(F)cc1)C(F)(F)F)S(=O)(=O)c1ccc(Cl)s1 (stereo not drawn) [Example 1, 5-chloro-N-methyl-N-(2,2,2-trifluoro-1-(4-fluorophenyl)ethyl)thiophene-2-sulfonamide] | 8910 | 
CN(C(c1ccc(F)cc1)C(F)(F)F)S(=O)(=O)c1ccc(F)s1 (stereo not drawn) [Example 17, 5-fluoro-N-methyl-N-(2,2,2-trifluoro-1-(4-fluorophenyl)ethyl)thiophene-2-sulfonamide] | 3630 | 
CCN(C(c1ccc(F)cc1)C(F)(F)F)S(=O)(=O)c1ccc(C#N)s1 (stereo not drawn) [Example 21, 5-cyano-N-ethyl-N-(2,2,2-trifluoro-1-(4-fluorophenyl)ethyl)thiophene-2-sulfonamide] | 437 | 
CCN(C(c1ccc(F)cc1)C(F)(F)F)S(=O)(=O)c1ccc(C(N)=O)s1 (stereo not drawn) [Example 22, 5-(N-ethyl-N-(2,2,2-trifluoro-1-(4-fluorophenyl)ethyl)sulfamoyl)thiophene-2-carboxamide] | 741 | 
CCN(C(c1ccc(F)cc1)C(F)(F)F)S(=O)(=O)c1ccc(C(=O)N(C)C)s1 (stereo not drawn) [Example 25, 5-(N-ethyl-N-(2,2,2-trifluoro-1-(4-fluorophenyl)ethyl)sulfamoyl)-N,N-dimethylthiophene-2-carboxamide] | 282 | 
CCN(C(c1ccc(F)cc1)C(F)(F)F)S(=O)(=O)c1ccc2c(c1)S(=O)(=O)CC2 (stereo not drawn) [Example 28, N-ethyl-N-(2,2,2-trifluoro-1-(4-fluorophenyl)ethyl)-2,3-dihydrobenzo[b]thiophene-6-sulfonamide 1,1-dioxide] | 355 | 
CCN([C@@H](c1ccc(F)cc1)C(F)(F)F)S(=O)(=O)c1cccc(C)n1 [Example 32, (S)—N-ethyl-6-methyl-N-(2,2,2-trifluoro-1-(4-fluorophenyl)ethyl)pyridine-2-sulfonamide] | 3800 | 
CCN(C(c1ccc(F)cc1)C(F)(F)F)S(=O)(=O)c1cnc(C(N)=O)s1 (stereo not drawn) [Example 46, 5-(N-ethyl-N-(2,2,2-trifluoro-1-(4-fluorophenyl)ethyl)sulfamoyl)thiazole-2-carboxamide] | 468 | 
CCN(C(c1ccc(F)cc1)C(F)(F)F)S(=O)(=O)c1ccc(C2CNC2)s1 (stereo not drawn) [Example 47, 5-(Azetidin-3-yl)-N-ethyl-N-(2,2,2-trifluoro-1-(4-fluorophenyl)ethyl)thiophene-2-sulfonamide] | 501 | 
CCN(C(c1ccc(F)cc1)C(F)(F)F)S(=O)(=O)c1csc(C(=O)OC)n1 (stereo not drawn) [Example 48, methyl 4-(N-ethyl-N-(2,2,2-trifluoro-1-(4-fluorophenyl)ethyl)sulfamoyl)thiazole-2-carboxylate] | 2000 | 
CCN(C(c1ccc(F)cc1)C(F)(F)F)S(=O)(=O)c1csc(C(N)=O)n1 (stereo not drawn) [Example 49, 4-(N-ethyl-N-(2,2,2-trifluoro-1-(4-fluorophenyl)ethyl)sulfamoyl)thiazole-2-carboxamide] | 339 | 
CCN(C(c1ccc(F)cc1)C(F)(F)F)S(=O)(=O)c1csc(C#N)n1 (stereo not drawn) [Example 50, 2-cyano-N-ethyl-N-(2,2,2-trifluoro-1-(4-fluorophenyl)ethyl)thiazole-4-sulfonamide] | 240 | 
CCN(C(c1ccc(F)cc1)C(F)(F)F)S(=O)(=O)c1cncc(C(N)=O)c1 (stereo not drawn) [Example 51, 5-(N-ethyl-N-(2,2,2-trifluoro-1-(4-fluorophenyl)ethyl)sulfamoyl)nicotinamide] | 372 | 

Structure (SMILES) | IC50 (Cav2.3) [nM] | Cav2.3 (pIC50) (Human Cav2.3 channel)
CCN(C(c1ccc(Cl)cc1)C(F)(F)F)S(=O)(=O)c1cncc(C#N)c1 (stereo not drawn) [Example 54, N-(1-(4-chlorophenyl)-2,2,2-trifluoroethyl)-5-cyano-N-ethylpyridine-3-sulfonamide] | 37.2 | 
N#Cc1cncc(S(=O)(=O)N(CCF)C(c2ccc(F)cc2)C(F)(F)F)c1 (stereo not drawn) [Example 64, 5-Cyano-N-(2-fluoroethyl)-N-(2,2,2-trifluoro-1-(4-fluorophenyl)ethyl)pyridine-3-sulfonamide] | 178 | 
N#Cc1cncc(S(=O)(=O)N(CCF)[C@@H](c2ccc(F)cc2)C(F)(F)F)c1 [Example 65, (S)-5-Cyano-N-(2-fluoroethyl)-N-(2,2,2-trifluoro-1-(4-fluorophenyl)ethyl)pyridine-3-sulfonamide] | 3800 | 
CCN([C@H](c1ccc(F)c(C)c1)C(F)(F)F)S(=O)(=O)c1cncc(C#N)c1 [Example 246, (R)-5-cyano-N-ethyl-N-(2,2,2-trifluoro-1-(4-fluoro-3-methylphenyl)ethyl)pyridine-3-sulfonamide] |  | 7.31
CCN([C@@H](c1ccccc1C(F)(F)F)C(F)(F)F)S(=O)(=O)c1cncc(C#N)c1 [Example 247, (S)-5-cyano-N-ethyl-N-(2,2,2-trifluoro-1-(2-(trifluoromethyl)phenyl)ethyl)pyridine-3-sulfonamide] |  | 5.11
CCN([C@H](c1ccccc1C(F)(F)F)C(F)(F)F)S(=O)(=O)c1cncc(C#N)c1 [Example 248, (R)-5-cyano-N-ethyl-N-(2,2,2-trifluoro-1-(2-(trifluoromethyl)phenyl)ethyl)pyridine-3-sulfonamide] |  | 5.14
CCN([C@@H](c1ccc(F)c(F)c1)C(F)(F)F)S(=O)(=O)c1cncc(C#N)c1 [Example 249, (S)-5-cyano-N-(1-(3,4-difluorophenyl)-2,2,2-trifluoroethyl)-N-ethylpyridine-3-sulfonamide] |  | 5.73
CCN([C@H](c1ccc(F)c(F)c1)C(F)(F)F)S(=O)(=O)c1cncc(C#N)c1 [Example 250, (R)-5-cyano-N-(1-(3,4-difluorophenyl)-2,2,2-trifluoroethyl)-N-ethylpyridine-3-sulfonamide] |  | 7.14
CCN([C@H](c1cccc(Cl)c1)C(F)(F)F)S(=O)(=O)c1cncc(C#N)c1 [Example 251, (R)—N-(1-(3-chlorophenyl)-2,2,2-trifluoroethyl)-5-cyano-N-ethylpyridine-3-sulfonamide] |  | 7.18
CCN([C@@H](c1cccc(Cl)c1)C(F)(F)F)S(=O)(=O)c1cncc(C#N)c1 [Example 252, (S)—N-(1-(3-chlorophenyl)-2,2,2-trifluoroethyl)-5-cyano-N-ethylpyridine-3-sulfonamide] |  | 5.71
CCN([C@@H](c1ccc(F)c(Cl)c1)C(F)(F)F)S(=O)(=O)c1cncc(C#N)c1 [Example 253, (S)—N-(1-(3-chloro-4-fluorophenyl)-2,2,2-trifluoroethyl)-5-cyano-N-ethylpyridine-3-sulfonamide] |  | 5.56
CCN([C@H](c1ccc(F)c(Cl)c1)C(F)(F)F)S(=O)(=O)c1cncc(C#N)c1 [Example 254, (R)—N-(1-(3-chloro-4-fluorophenyl)-2,2,2-trifluoroethyl)-5-cyano-N-ethylpyridine-3-sulfonamide] |  | 7.33
CN(C(c1ccc(C(F)(F)F)c(F)c1)C(F)(F)F)S(=O)(=O)c1cncc(C#N)c1 (stereo not drawn) [Example 255, 5-cyano-N-methyl-N-(2,2,2-trifluoro-1-(3-fluoro-4-(trifluoromethyl)phenyl)ethyl)pyridine-3-sulfonamide] |  | 6.96
CCN([C@@H](c1ccc(F)c(OC)c1)C(F)(F)F)S(=O)(=O)c1cncc(C#N)c1 [Example 258, (S)-5-cyano-N-ethyl-N-(2,2,2-trifluoro-1-(4-fluoro-3-methoxyphenyl)ethyl)pyridine-3-sulfonamide] |  | 5.87
CCN([C@H](c1ccc(F)c(OC)c1)C(F)(F)F)S(=O)(=O)c1cncc(C#N)c1 [Example 259, (R)-5-cyano-N-ethyl-N-(2,2,2-trifluoro-1-(4-fluoro-3-methoxyphenyl)ethyl)pyridine-3-sulfonamide] |  | 6.61
CCN(C(c1ncc(C)s1)C(F)(F)F)S(=O)(=O)c1cncc(C#N)c1 (stereo not drawn) [Example 264, 5-Cyano-N-ethyl-N-(2,2,2-trifluoro-1-(5-methylthiazol-2-yl)ethyl)pyridine-3-sulfonamide] |  | 4.96
Cc1ccc(S(=O)(=O)N(C)[C@H](c2ccc(C(F)(F)F)cc2)C(F)(F)F)cn1 [Example 266, (R)—N,6-dimethyl-N-(2,2,2-trifluoro-1-(4-(trifluoromethyl)phenyl)ethyl)pyridine-3-sulfonamide] |  | 6.54
CN([C@H](c1ccc(C(F)(F)F)cc1)C(F)(F)F)S(=O)(=O)c1cccnc1 [Example 267, (R)—N-methyl-N-(2,2,2-trifluoro-1-(4-(trifluoromethyl)phenyl)ethyl)pyridine-3-sulfonamide] |  | 7.09
